# What was measured:
# A2780 ovarian cells [1] = assay: A2780 ovarian cell proliferation assay in lipid reduced medium, with palmitate (MTT); format: cell-based; conditions: Homo sapiens, A2780, 96 h; read-out: pIC50 A2780 Ovarian Cell, With Palmitate (converted)
# Summary of the method: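 Seeded cells were switched next day to lipid-reduced serum, exposed to compound and 25 μM palmitate complexed with fatty-acid-free BSA, and incubated 96 h. Proliferation was then determined by MTT absorbance at 544 nm, with a best-fit curve of signal against concentration.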
# A2780 ovarian cells [2] = assay: A2780 ovarian cell proliferation assay in lipid reduced medium, without palmitate (MTT); format: cell-based; conditions: Homo sapiens, A2780, 96 h; read-out: pIC50 A2780 Ovarian Cell, Without Palmitate (converted)
# [3] = biological target: T1, hFASN enzyme (full length) (Homo sapiens, UniProt P49327); assay: Fatty Acid Synthase (FASN) inhibition scintillation proximity assay; format: biochemical; conditions: for inhibition at 10 µM: read-out: Human FASN % inhibition @ 10 μM, 10 μM test compound; for IC50: read-out: Human FASN pIC50 (converted)
# T1 construct: 10 μL hFASN enzyme (full length, 300 ng, purified in house); made in house
# Summary of the method: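 Purified full-length hFASN (300 ng) converts ^3H-acetyl-CoA plus malonyl-CoA to ^3H-palmitate in 100 mM KH2PO4 pH 7.5, 1 mM DTT; compounds tested at 0.01–30 μM. Product captured on streptavidin imaging beads and read by LEADseeker at 610 nm after ≥24 h; 4-parameter logistic fit versus controls.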
# T1 sequence (P49327 whole entry): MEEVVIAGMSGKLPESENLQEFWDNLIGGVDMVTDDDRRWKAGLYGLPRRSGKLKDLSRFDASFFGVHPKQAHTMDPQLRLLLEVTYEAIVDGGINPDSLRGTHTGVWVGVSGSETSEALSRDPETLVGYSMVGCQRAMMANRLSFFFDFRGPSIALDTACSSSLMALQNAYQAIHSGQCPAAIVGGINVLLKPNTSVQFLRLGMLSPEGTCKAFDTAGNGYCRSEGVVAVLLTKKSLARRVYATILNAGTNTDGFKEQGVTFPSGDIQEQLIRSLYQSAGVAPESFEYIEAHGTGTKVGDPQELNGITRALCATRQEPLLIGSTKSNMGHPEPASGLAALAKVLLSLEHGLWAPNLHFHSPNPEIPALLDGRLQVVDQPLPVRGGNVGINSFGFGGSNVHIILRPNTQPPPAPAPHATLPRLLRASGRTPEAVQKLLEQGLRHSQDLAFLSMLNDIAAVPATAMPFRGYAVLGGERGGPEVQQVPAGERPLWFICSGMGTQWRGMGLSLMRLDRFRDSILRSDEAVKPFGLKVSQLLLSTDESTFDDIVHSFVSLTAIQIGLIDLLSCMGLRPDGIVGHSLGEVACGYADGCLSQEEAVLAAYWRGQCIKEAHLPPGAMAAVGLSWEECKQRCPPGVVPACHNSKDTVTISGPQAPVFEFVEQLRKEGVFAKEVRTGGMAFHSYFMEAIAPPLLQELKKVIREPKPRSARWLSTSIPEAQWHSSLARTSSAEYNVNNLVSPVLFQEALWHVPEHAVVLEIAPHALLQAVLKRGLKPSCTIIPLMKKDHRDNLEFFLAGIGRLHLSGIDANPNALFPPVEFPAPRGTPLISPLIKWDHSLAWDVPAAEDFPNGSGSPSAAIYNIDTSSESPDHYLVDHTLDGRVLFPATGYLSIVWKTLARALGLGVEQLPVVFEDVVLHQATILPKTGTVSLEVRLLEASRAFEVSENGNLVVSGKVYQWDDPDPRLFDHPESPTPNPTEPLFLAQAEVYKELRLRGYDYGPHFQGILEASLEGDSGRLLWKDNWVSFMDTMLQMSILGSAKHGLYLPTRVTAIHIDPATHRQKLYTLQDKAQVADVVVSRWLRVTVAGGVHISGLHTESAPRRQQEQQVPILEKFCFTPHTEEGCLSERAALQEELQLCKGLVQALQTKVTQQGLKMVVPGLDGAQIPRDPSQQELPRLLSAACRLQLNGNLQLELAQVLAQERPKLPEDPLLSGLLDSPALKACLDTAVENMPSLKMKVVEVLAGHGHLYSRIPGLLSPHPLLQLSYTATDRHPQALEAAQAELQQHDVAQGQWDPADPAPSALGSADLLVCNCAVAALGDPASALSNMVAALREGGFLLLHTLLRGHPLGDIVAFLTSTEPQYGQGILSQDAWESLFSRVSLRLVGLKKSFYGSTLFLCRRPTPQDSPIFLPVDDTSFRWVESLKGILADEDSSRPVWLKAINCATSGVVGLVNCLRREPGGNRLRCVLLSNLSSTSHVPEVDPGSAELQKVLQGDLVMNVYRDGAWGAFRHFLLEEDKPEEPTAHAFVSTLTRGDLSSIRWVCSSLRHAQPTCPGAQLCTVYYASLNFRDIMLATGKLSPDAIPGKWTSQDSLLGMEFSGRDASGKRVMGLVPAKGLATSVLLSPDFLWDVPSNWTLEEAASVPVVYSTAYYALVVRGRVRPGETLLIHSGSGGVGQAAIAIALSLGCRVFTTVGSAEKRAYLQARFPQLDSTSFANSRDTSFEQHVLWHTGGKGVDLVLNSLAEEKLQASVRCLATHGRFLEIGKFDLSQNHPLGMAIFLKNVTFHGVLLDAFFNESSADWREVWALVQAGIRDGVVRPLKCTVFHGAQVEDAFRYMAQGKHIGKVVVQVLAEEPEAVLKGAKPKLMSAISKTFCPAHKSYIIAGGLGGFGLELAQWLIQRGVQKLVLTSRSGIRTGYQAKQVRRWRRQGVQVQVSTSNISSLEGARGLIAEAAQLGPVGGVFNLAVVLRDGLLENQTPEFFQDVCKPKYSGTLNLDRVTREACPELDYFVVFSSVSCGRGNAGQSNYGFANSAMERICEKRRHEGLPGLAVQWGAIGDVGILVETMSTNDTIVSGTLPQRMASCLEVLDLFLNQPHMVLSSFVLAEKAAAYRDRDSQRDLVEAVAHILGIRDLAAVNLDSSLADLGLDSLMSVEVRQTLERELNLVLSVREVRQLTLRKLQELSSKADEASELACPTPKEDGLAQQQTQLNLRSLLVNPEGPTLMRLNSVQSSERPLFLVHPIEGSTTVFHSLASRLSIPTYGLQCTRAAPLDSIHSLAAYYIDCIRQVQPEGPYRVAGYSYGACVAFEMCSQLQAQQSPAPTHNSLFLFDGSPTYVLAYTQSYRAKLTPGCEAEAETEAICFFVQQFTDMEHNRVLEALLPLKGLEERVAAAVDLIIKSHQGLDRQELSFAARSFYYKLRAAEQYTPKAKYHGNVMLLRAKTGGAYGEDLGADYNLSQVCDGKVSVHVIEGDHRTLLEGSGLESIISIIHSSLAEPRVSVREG
Structure (SMILES),IC50 (A2780 ovarian cells [1]),IC50 (A2780 ovarian cells [2]),inhibition at 10 µM [3],IC50 [3]
"COC(=O)N1CC[C@@H](CN2C(=O)C3(CCOC3)N=C2c2ccc(-c3ccc4cccnc4c3)cc2)C1 (stereo partly drawn) [compound 683, Methyl (3S)-{[4-oxo-2-(4-quinolin-7-ylphenyl)-7-oxa-1,3-diazaspiro[4.4]non-1-en-3-yl]methyl}pyrrolidin-1-carboxylate]",> 10 µM,> 10 µM,63%,4.17 µM
"Cc1cc(-c2cccc(S(C)(=O)=O)c2)ccc1C1=NC2(CC2)C(=O)N1CC1CN(C(=O)C2CC2)C1 [compound 775, 6-((1-(cyclopropanecarbonyl)azetidin-3-yl)methyl)-5-(3-methyl-3′-(methylsulfonyl)-[1,1′-biphenyl]-4-yl)-4,6-diazaspiro[2.4]hept-4-en-7-one]",> 10 µM,> 10 µM,34%,> 10 µM
"Cc1cc(-c2ccc(-c3ccnn3CC3CC3)cc2)ccc1C1=NC2(CC2)C(=O)N1CC1CN(C(=O)C2(C)CC2)C1 [compound 786, 5-(4′-(1-(cyclopropylmethyl)-1H-pyrazol-5-yl)-3-methyl-[1,1′-biphenyl]-4-yl)-6-((1-(1-methylcyclopeopanecarbonyl)azetidin-3-yl)methyl)-4,6-diazaspiro[2.4]hept-4-en-7-one]",5.89 µM,6.76 µM,31%,> 10 µM
"O=C(C1CC1)N1CC(CN2C(=O)C3(CC3)N=C2c2ccc(-c3ccc4c(cnn4C4COC4)c3)cc2F)C1 [compound 789, 6-((1-(cyclopropanecarbonyl)azetidin-3-yl)methyl)-5-(2-fluoro-4-(1-(oxetan-3-yl)-1H-indazol-5-yl)phenyl)-4,6-diazaspiro[2.4]hept-4-en-7-one]",> 10 µM,> 10 µM,26%,> 10 µM
"Cc1ccc2c(-c3ccc(C4=NC5(CC5)C(=O)N4CC4CN(C(=O)C5CC5)C4)cc3)cccc2n1 [compound 790, 6-((1-(cyclopropanecarbonyl)azetidin-3-yl)methyl)-5-(4-(2-methy7lquinolin-5-yl)phenyl)-4,6-diazaspiro[2.4]jept-4-en-7-one]",> 10 µM,> 10 µM,47%,> 10 µM
"CCCc1ccc(-c2ccc(C3=NC4(CC4)C(=O)N3CC3CN(C(=O)C4CC4)C3)cc2)cn1 [compound 795, 6-((1-(cyclopropanecarbonyl)azetidin-3-yl)methyl)-5-(4-(6-propylpyridin-3-yl)phenyl)-4,6-diazaspiro[2.4]hept-4-en-7-one]",> 10 µM,> 10 µM,34%,> 10 µM
"COC(=O)N1CC2(C1)N=C(c1ccc(-c3ccc(-c4cnn(C)c4)cc3)cc1)N(C[C@@H]1CCN(S(C)(=O)=O)C1)C2=O [compound 891, (S)-methyl 6-(4′-(1-methyl-1H-pyrazol-4-yl)-[1,1′-biphenyl]-4-yl)-7-((1-(methylsulfonyl)pyrrolidin-3-yl)methyl)-8-oxo-2,5,7-triazaspiro]3.4[ovt-5-ene-2-carboxylate]",> 10 µM,> 10 µM,8%,> 10 µM
"CS(=O)(=O)N1CCC(CN2C(=O)C3(CCOC3)N=C2c2ccc(-c3ccc4cccnc4c3)cc2)C1 (stereo not shown) [compound 896, 3-((1-(methylsulfonyl)pyrrolidin-3-yl)methyl)-2-(4-(quinolin-7-yl)phenyl)-7-oxa-1,3-diazaspiro[4.4]non-1-en-4-one]",> 10 µM,> 10 µM,10%,> 10 µM
"O=C(N1CC(CN2C(=O)C3(CCOC3)N=C2c2ccc(-c3ccc4occc4c3)cc2)C1)C(F)(F)F (stereo not shown) [compound 897, 2-(4-(benzofuran-5-yl)phenyl)-3-((1-(2,2,2-trifluoroacetyl)azetidin-3-yl)methyl)-7-oxa-1,3-diazaspiro[4.4]non-1-en-4-one]",> 10 µM,> 10 µM,15%,> 10 µM
"CS(=O)(=O)N1CC(CN2C(=O)C3(CCOC3)N=C2c2ccc(-c3ccc4occc4c3)cc2)C1 (stereo not shown) [compound 898, 2-(4-(benzofuran-5-yl)phenyl)-3-((1-(methylsulfonyl)azetidin-3-yl)methyl)-7-oxa-1,3-diazaspiro[4.4]non-1-en-4-one]",> 10 µM,> 10 µM,6%,> 10 µM
"COC(=O)N1CC2(C1)N=C(c1ccc(-c3ccc4cccnc4c3)cc1)N(C[C@@H]1CCN(S(C)(=O)=O)C1)C2=O [compound 900, (S)-methyl 7-((1-(methylsulfionyl)pyrrolidin-3-yl)methyl)-8-oxo-6-(4-(quinolin-7-yl)phenyl)-2,5,7-triazaspiro[3.4]oct-5-ene-2-carboxylate]",> 10 µM,> 10 µM,9%,> 10 µM

# Second part, the molecule after the results:
IC50 (A2780 ovarian cells [1]),IC50 (A2780 ovarian cells [2]),inhibition at 10 µM [3],IC50 [3],Structure (SMILES)
> 10 µM,> 10 µM,25%,> 10 µM,"Cc1cc(-c2cccc(S(=O)(=O)C(C)C)c2)ccc1C1=NC2(CC2)C(=O)N1CC1CN(C(=O)C2CC2)C1 [compound 776, 6-((1-(cyclopropanecarbonyl)azetidin-3-yl)methyl)-5-(3′-(isopropylsulfonyl)-3-methyl-[1,1′-biphenyl]-4-yl)-4,6-diazaspiro[2.4]hept-4-en-7-one]"
> 10 µM,9.55 µM,34%,> 10 µM,"CS(=O)(=O)c1cccc(-c2ccc(C3=NC4(CC4)C(=O)N3CC3CN(C(=O)C4CC4)C3)c(F)c2)c1 [compound 777, 6-((1-(cyclopropanecarbonyl)azetidin-3-yl)methyl)-5-(3-fluoro-3′-(methylsulfonyl)-[1,1′-biphenyl]-4-yl)-4,6-diazaspiro[2.4]hept-4-en-7-one]"
> 10 µM,5.89 µM,14%,> 10 µM,"CC(C)c1ccc(-c2ccc(C3=NC4(CC4)C(=O)N3CC3CN(C(=O)C4CC4)C3)cc2)cn1 [compound 784, 6-((1-(cyclopropanecarbonyl)azetidin-3-yl)methyl)-5-(4-(6-isopropylpyridin-3-yl)phenyl)-4,6-diazaspiro[2.4]hept-4-en-7-one]"
~6.17 µM,3.89 µM,24%,> 10 µM,Cc1cc(-c2ccc(-c3ccnn3CC(C)C)cc2)ccc1C1=NC2(CC2)C(=O)N1CC1CN(C(=O)C2(C)CC2)C1 [compound 785]
> 10 µM,9.33 µM,38%,> 10 µM,"Cc1cc(-c2nc3cc(Br)ccc3cc2C)ccc1C1=NC2(CC2)C(=O)N1CC1CN(C(=O)C2(C)CC2)C1 [compound 787, 5-(4-(7-bromo-3-methylquinolin-2-yl)-2-methylphenyl)-6-((1-(1-methylcyclopropanecarbonyl)azetidin-3-yl)methyl)-4,6-diazaspiro[2.4]hept-4-en-7-one]"
> 10 µM,> 10 µM,14%,> 10 µM,"O=C(C1CC1)N1CC(CN2C(=O)C3(CC3)N=C2c2ccc(-c3ccc4c(cnn4C4COC4)c3)cc2)C1 [compound 788, 6-((1-(cyclopropanecarbonyl)azetidin-3-yl)methyl)-5-(4-(1-(oxetan-3-yl)-1H-indazol-5-yl)phenyl)-4,6-diazaspiro[2.4]hept-4-en-7-one]"
> 6.17 µM,> 6.17 µM,-2%,> 10 µM,"Cc1cc(-c2ccc(C3=NC4(CC4)C(=O)N3CC3CN(C(=O)C4CC4)C3)cc2)nc2cc(Br)ccc12 [compound 791, 5-(4-(7-bromo-4-methylquinolin-2-yl)phenyl)-6-((1-(cyclopropanecarbonyl)azetidin-3-yl)methyl)4,6-diazaspiro[2.4]hept-4-en-7-one]"
> 10 µM,> 10 µM,38%,> 10 µM,"Cn1ncc2nc(-c3ccc(C4=NC5(CC5)C(=O)N4CC4CN(C(=O)C5CC5)C4)cc3)ccc21 [compound 792, 6-((1-(cyclopropanecarbonyl)azetidin-3-yl)methyl)-5-(4-(1-methyl-1H-pyrazolo[4,3-b]pyridin-5-yl)phenyl)-4,6-diazaspiro[2.4]hept-4-en-7-one]"
> 10 µM,> 10 µM,13%,> 10 µM,"Cc1nnc2ccc(-c3ccc(C4=NC5(CC5)C(=O)N4CC4CN(C(=O)C5CC5)C4)cc3)cn12 [compound 793, 6-((1-(cyclopropanecarbonyl)azetidin-3-yl)methyl)-5-(4-(3-methyl-[1,2,4]triazolo[4,3-a]pyridin-6-yl)phenyl)-4,6-diazaspiro[2.4]hept-4-en-7-one]"
> 10 µM,> 10 µM,-15%,> 10 µM,"CC(C)(O)c1ccc(-c2ccc(C3=NC4(CC4)C(=O)N3CC3CN(C(=O)C4CC4)C3)cc2)nc1 [compound 794, 6-((1-(cyclopropanecarbonyl)azetidin-3-yl)methyl)-5-(4-(5-(2-hydroxypropan-2-yl)pyridin-2-yl)phenyl)-4,6-diazaspiro[2.4]hept-4-en-7-one]"
> 10 µM,> 10 µM,-10%,> 10 µM,"Cn1cc(-c2ccc(-c3ccc(C4=NC5(CCOC5)C(=O)N4CC4CN(C(=O)C(F)(F)F)C4)cc3)cc2)cn1 (stereo not shown) [compound 899, 2-(4′-(1-methyl-1H-pyrazol-4-yl)-[1,1′-biphenyl]-4-yl)-3-((1-(2,2,2-trifluoroacetyl)azetidin-3-yl)methyl)-7-oxa-1,3-diazaspiro[4.4]non-1-en-4-one]"

# — patent US10077261B2, “Imidazolin-5-one derivative useful as FASN inhibitors for the treatment of cancer” (Janssen Pharmaceutica NV, priority 2012, dated 2018)
